Laboratory results taken from paper PMC7065771, “Dietary supplementation of recombinant antimicrobial peptide Epinephelus lanceolatus piscidin improves growth performance and immune response in Gallus gallus domesticus” (PLoS ONE, 2020).

Assays:
[1] = test system: Escherichia coli (BCRC 10675); assay: Inhibition zone (disk diffusion) assay; assay type: cell-based; details: then disk diffusion 16 h at 37°C
Method: (§1) All assays were performed in triplicate.
(§2) The antimicrobial activity of rEP from flask cultures was evaluated by determining its ability to prevent growth of Gram-positive and Gram-negative bacteria with a disk diffusion assay. […] The most susceptible pathogens were R. anatipestifer (CFC27) and R. anatipestifer (CFC437) (Table 3a). Next, we investigated the thermostability of flask-fermented rEP with regard to its toxicity toward S. aureus (BCRC 10780), E. coli (BCRC 10675) and P. aeruginosa (ATCC 19660). Empty vector with no insert in P. pastoris was used as a control. Thermostability was measured by disk diffusion assay after cultures were incubated for 5 min at 40, 60, 80, or 100°C (Table 3b).

[2] = test system: Pseudomonas aeruginosa (ATCC 19660); assay: Inhibition zone (disk diffusion) assay; assay type: cell-based; details: then disk diffusion 16 h at 37°C
Method: as §1, §2

[3] = test system: Riemerella anatipestifer (CFC27); assay: Inhibition zone (disk diffusion) assay; assay type: cell-based; details: disk paper 16 h at 37°C, shake-flask supernatant 120 h after induction
Method: as §1, §2

[4] = test system: Riemerella anatipestifer (CFC437); assay: Inhibition zone (disk diffusion) assay; assay type: cell-based; details: disk paper 16 h at 37°C, shake-flask supernatant 120 h after induction
Method: as §1, §2

[5] = test system: Riemerella anatipestifer (RA3); assay: Inhibition zone (disk diffusion) assay; assay type: cell-based; details: disk paper 16 h at 37°C, shake-flask supernatant 120 h after induction
Method: as §1, §2

[6] = test system: Staphylococcus aureus (BCRC 10780); assay: Inhibition zone (disk diffusion) assay; assay type: cell-based; details: then disk diffusion 16 h at 37°C
Method: as §1, §2

K. oxytoca = assay: Inhibition zone assay, flask culture supernatant; assay type: cell-based, Klebsiella oxytoca; details: flask culture supernatant after 5 days of methanol induction
Method: as §1
Fig 4 Antimicrobial activity of rEP produced in P. pastoris by flask and fermenter methods. (a) rEP concentration in the yeast culture supernatant before and after induction with methanol for 24 h to 120 h in flask culture. […] The marker “-” represents Gram-negative; “+” represents Gram-positive. (b) The antibacterial activity of rEP produced by the fermenter method. Yeast were induced with methanol from 24 h to 120 h in a fermenter.

Gallus gallus domesticus = assay: Dietary supplementation trial, growth performance and survival; assay type: in vivo; details: ad libitum, 35 days (table title: 4 weeks), n = 27; for FE (feed efficiency) / PER (protein efficiency ratio) / Weight gain: mean ± SD
Excerpt: A total of 189 male or female 2-day-old G. g. domesticus were randomly assigned to seven dietary treatment groups, including rEP (0.75, 1.5, 3.0, 6.0 and 12%), spiraline-A (Juily Pharmaceutical Co., LTD. San Sia, Taipei Hsien, Taiwan), and basal diet groups. Each treatment group consisted of one cage with twenty-seven G. g. domesticus. The composition of the fodder is presented in S1b–S1d Table. The animals were allowed ad libitum access to fodder and water for the duration of the trial, beginning from 3 days of age. The total time of feeding was 35 days. The G. g. domesticus were maintained in a cage (animal container) with a constant environment (28.9–37.8°C, 12/12 h light-dark cycle). rEP fodder and fecal sewage were not directly discharged to the outside.
Body weight and survival rate were monitored daily during the experimental period. The weight gain, feed efficiency (FE), protein efficiency ratio (PER), and survival percentage were calculated. After 35 days of treatment, the G. g. domesticus were euthanized, blood samples were collected and serum was obtained by centrifugation (3000 ×g for 15 min at 4°C). Serum was kept at -80°C until analysis. Enzyme-linked immunosorbent assay (ELISA) was performed in accordance with the manufacturer’s standard procedures to determine the levels of immunological factors, including TNF-α, Interleukin-1β, Interleukin-6, Interleukin-10, Lysozyme, Immunoglobin-G (IgG), and Interferon-γ. Chicken serum samples were analyzed with ELISA kits from ABclonal Inc. (Woburn, MA, USA). After the reaction was completed, the optical density (OD) was measured at 450 nm on a microplate reader (SpectraMax® i3, Molecular Devices, Lagerhausstrasse, Wals, Austria).
Data were analyzed with Prism 7 software (GraphPad Inc., La Jolla, CA, USA). Values represent the mean ± standard deviation (SD). P < 0.05 was considered significant for one-way Analysis of variance (ANOVA) with Tukey’s multiple comparison test.

duodenum villus = assay: Intestinal morphology, histological analysis; assay type: in vivo, Gallus gallus domesticus; details: rEP animals compared to the control group, hematoxylin and eosin staining (S3 Fig)
Method: (§3) The growth promoting action of EP may be related to intestinal absorption and as such, small villus morphology was evaluated in a previous study. […] Moreover, growth enhancement has been observed in other reports. For example, feeding mice with PR39 peptide (4.7 kDa proline-rich AMP)-expressing Lactobacillus casei caused jejunum and duodenum villus height in the intestinal villi to increase. Use of recombinant porcine β-defensin 2 (rpBD2) as a feed additive for weaned piglets also produced increases in intestinal villus height of the duodenum and jejunum. Additionally, birds fed with AMP-A3 diet had increased villus height of the duodenum, jejunum and ileum. […] Fig). […] Supplementary file pone.0230021.s003.TIF: S3 Fig Effects of orally administered a rEP on posture, body weight, intestinal morphology, and gut flora. (a) After 28 days of feeding the 1.5% rEP-receiving chickens were larger than the spiraline A and basal diet controls. (b) The effects of feeding 1.5% rEP on body weight. (c) Representative picture of hematoxylin and eosin staining of intestinal villi and crypts. (d) The intestinal villus length and crypt depth were measured. (e) The effects of orally administrated the spiraline A, basal diet, and 1.5% rEP on intestinal microflora in G. g. domesticus. Relative proportions of bacterial families are shown. […]

intestinal microflora = assay: Intestinal microflora in duodenum; assay type: in vivo, Gallus gallus domesticus; details: 1.5% rEP in diet, compared to spiraline A and basal diet groups (S3e Fig)
Method: as §3

[7] = thermostability: flask supernatant incubated 5 min at 40°C
[8] = thermostability: flask supernatant incubated 5 min at 60°C
[9] = thermostability: flask supernatant incubated 5 min at 80°C
[10] = diet with 0.75% rEP spray-dried powder
[11] = diet with 1.5% rEP spray-dried powder
[12] = diet with 3.0% rEP spray-dried powder
[13] = diet with 6.0% rEP spray-dried powder
[14] = diet with 12.0% rEP spray-dried powder

Sequence: EFFIFHIIKGLFHAGRMIHGLVNRRRHRHHHHHH [rEP, recombinant His-tagged Epinephelus lanceolatus piscidin from Pichia pastoris, used as crude culture supernatant or spray-dried powder]
- Inhibition zone diameter after heat treatment [1, 7]: 9.0±1.0 mm
- Inhibition zone diameter after heat treatment [1, 8]: 9.0±1.0 mm
- Inhibition zone diameter after heat treatment [1, 9]: 8.6±0.5 mm
- Inhibition zone diameter after heat treatment [2, 7]: 10.1±0.3 mm
- Inhibition zone diameter after heat treatment [2, 8]: 9.5±0.2 mm
- Inhibition zone diameter ([3]; first of two values printed): 12 mm
- Inhibition zone diameter ([3]; second of two values printed): 14 mm
- Inhibition zone diameter ([4]; first of two values printed): 11 mm
- Inhibition zone diameter ([4]; second of two values printed): 13 mm
- Inhibition zone diameter ([5]; first of two values printed): 10, 10 mm
- Inhibition zone diameter ([5]; second of two values printed): 10, 10 mm
- Inhibition zone diameter after heat treatment [6, 7]: 10.6±1.5 mm
- Inhibition zone diameter after heat treatment [6, 8]: 9.1±0.7 mm
- Inhibition zone diameter after heat treatment [6, 9]: 9.3±0.5 mm
- Inhibition zone diameter after heat treatment ([6]; thermostability: flask supernatant incubated 5 min at 100°C): 9.3±0.5 mm
- Inhibition zone (K. oxytoca): large inhibition zones
- FE (feed efficiency) (Gallus gallus domesticus; [10]): 0.53±0.03
- PER (protein efficiency ratio) (Gallus gallus domesticus; [10]): 1.58±0.09
- Weight gain (Gallus gallus domesticus; [10]): 2531.80±142.13%
- Survival (Gallus gallus domesticus; [10]): 92.60%
- FE (feed efficiency) (Gallus gallus domesticus; [11]): 0.58±0.03
- PER (protein efficiency ratio) (Gallus gallus domesticus; [11]): 1.8±0.08
- Weight gain (Gallus gallus domesticus; [11]): 2727.42±116.08%
- Survival (Gallus gallus domesticus; [11]): 100%
- FE (feed efficiency) (Gallus gallus domesticus; [12]): 0.57±0.02
- PER (protein efficiency ratio) (Gallus gallus domesticus; [12]): 1.86±0.08
- Weight gain (Gallus gallus domesticus; [12]): 2809.71±119.30%
- Survival (Gallus gallus domesticus; [12]): 96.20%
- FE (feed efficiency) (Gallus gallus domesticus; [13]): 0.57±0.02
- PER (protein efficiency ratio) (Gallus gallus domesticus; [13]): 2.03±0.08
- Weight gain (Gallus gallus domesticus; [13]): 2738.11±109.04%
- Survival (Gallus gallus domesticus; [13]): 100%
- FE (feed efficiency) (Gallus gallus domesticus; [14]): 0.48±0.04
- PER (protein efficiency ratio) (Gallus gallus domesticus; [14]): 2.17±0.16
- Weight gain (Gallus gallus domesticus; [14]): 2181.26±158.95%
- Survival (Gallus gallus domesticus; [14]): 96.20%
- Duodenum villus height (duodenum villus): significantly greater
- Numbers of Enterobacteriaceae and Staphylococcaceae in duodenum (intestinal microflora): decreasing
- Numbers of Lactobacillaceae and Entercoccaceae in duodenum (intestinal microflora): significantly increased
